A value given as a limit tells only on which side of the number the result lay.

Experiment [1] deals with human Werner helicase (WRN, amino acids 517-1235 with L1074F point mutation) (Homo sapiens (Human), UniProt Q14191, L1074F). Description: WRN (BV08) ADP-Glo assay. It is filed as biochemical. To be noted: human WRN (aa 517-1235, L1074F), read-out: ADP-Glo_hWRN_IC50. The method, boiled down:
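Untagged WRN 517-1235 (L1074F), Sf9/baculovirus-expressed, 0.15 nM, preincubated 15 min with compound, then 5 μM ATP and 0.1 nM annealed DNA duplex added; 60 min at 25 °C in Bicine pH 7.5, 1 mM MgCl2, 1% DMSO. ADP-Glo luminescence; % inhibition vs DMSO and 20 μM NSC-617145 controls, four-parameter IC50 fit.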

The test system of experiment [2] is p21 induction in HCT 116 cells. Description: p21 induction in cells (In-Cell Western, p21/GAPDH ratio). It is filed as cell-based. To be noted: Homo sapiens, 24 h compound incubation, read-out: p21_EC50. The essentials:
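HCT 116 cells treated 24 h at 37° C with 11-point, 2-fold dilutions typically from 10 μM, in duplicate. Fixed cells co-stained for p21 (800 nm) and GAPDH (700 nm) by In-Cell Western. p21/GAPDH ratio normalised between DMSO and reference WRN inhibitor controls, and EC50 obtained by nonlinear regression.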

Sequence of human Werner helicase (WRN, amino acids 517-1235 with L1074F point mutation) (Q14191 other isoform, or with tags, fused parts or gaps L1074F (already in the parent)): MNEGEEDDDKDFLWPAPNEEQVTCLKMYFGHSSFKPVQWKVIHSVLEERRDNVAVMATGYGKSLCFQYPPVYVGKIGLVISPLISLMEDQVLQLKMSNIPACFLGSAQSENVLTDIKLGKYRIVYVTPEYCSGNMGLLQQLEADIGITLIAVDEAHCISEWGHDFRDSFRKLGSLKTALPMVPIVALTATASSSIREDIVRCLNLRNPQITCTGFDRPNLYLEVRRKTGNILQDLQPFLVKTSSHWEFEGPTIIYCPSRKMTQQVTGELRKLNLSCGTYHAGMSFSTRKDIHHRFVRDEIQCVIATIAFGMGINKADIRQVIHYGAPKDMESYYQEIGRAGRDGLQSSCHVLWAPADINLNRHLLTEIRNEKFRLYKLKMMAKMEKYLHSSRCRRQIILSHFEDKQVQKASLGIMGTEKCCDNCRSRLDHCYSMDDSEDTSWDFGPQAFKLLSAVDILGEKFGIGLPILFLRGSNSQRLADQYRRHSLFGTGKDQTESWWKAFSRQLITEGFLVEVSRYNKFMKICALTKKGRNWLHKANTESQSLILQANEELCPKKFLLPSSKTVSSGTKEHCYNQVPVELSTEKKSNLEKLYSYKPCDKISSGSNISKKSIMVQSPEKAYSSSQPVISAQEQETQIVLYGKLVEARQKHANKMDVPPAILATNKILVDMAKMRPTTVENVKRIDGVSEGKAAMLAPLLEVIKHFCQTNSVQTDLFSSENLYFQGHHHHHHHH

As for `CCc1c(N2CCN(C(=O)c3cncnc3OC)[C@H]3CC[C@@H]32)c(=O)c2nn(C3=CCOCC3)nc2n1CC(=O)NC12CC(C(C)C)(C1)C2` [Compound I-201, 2-[2-(3,6-dihydro-2H-pyran-4-yl)-5-ethyl-6-[(1S,6S)-5-(4-methoxypyrimidine-5-carbonyl)-2,5-diazabicyclo[4.2.0]octan-2-yl]-7-oxo-2H,4H,7H-[1,2,3]triazolo[4,5-b]pyridin-4-yl]-N-[3-(propan-2-yl)bicyclo[1.1.1]pentan-1-yl]acetamide], in experiment [1], the IC50 was 5 to 50 nM. In addition, the EC50 in experiment [2] was no more than 500 nM.

In the case of `CCc1c(N2CCN(C(=O)c3ncnc(C)c3O)[C@H]3CC[C@@H]32)c(=O)c2nn(C3CC3)nc2n1CC(=O)NC12CC(C3CC3)(C1)C2` [Compound I-202, 2-{2-cyclopropyl-5-ethyl-6-[(1S,6S)-5-(5-hydroxy-6-methylpyrimidine-4-carbonyl)-2,5-diazabicyclo[4.2.0]octan-2-yl]-7-oxo-2H,4H,7H-[1,2,3]triazolo[4,5-b]pyridin-4-yl}-N-{3-cyclopropylbicyclo[1.1.1]pentan-1-yl}acetamide], the IC50 in experiment [1] is 5 to 50 nM. In addition, in experiment [2], the EC50 lay within 500 to 2000 nM.

Regarding `CCc1c(N2CCN(C(=O)c3cnccc3OC)[C@H]3CC[C@@H]32)c(=O)c2nn(C3=CCOCC3)nc2n1CC(=O)NC12CC(C(C)C)(C1)C2` [Compound I-203, 2-[2-(3,6-dihydro-2H-pyran-4-yl)-5-ethyl-6-[(1S,6S)-5-(4-methoxypyridine-3-carbonyl)-2,5-diazabicyclo[4.2.0]octan-2-yl]-7-oxo-2H,4H,7H-[1,2,3]triazolo[4,5-b]pyridin-4-yl]-N-[3-(propan-2-yl)bicyclo[1.1.1]pentan-1-yl]acetamide], the IC50 in experiment [1] fell in the range of 5 to 50 nM. In experiment [2], the EC50 lay within 500 to 2000 nM.

In the case of `CCc1c(N2CCN(C(=O)c3ncccc3OC)[C@H]3CC[C@@H]32)c(=O)c2nn(C3=CCOCC3)nc2n1CC(=O)NC12CC(C(C)C)(C1)C2` [Compound I-204, 2-[2-(3,6-dihydro-2H-pyran-4-yl)-5-ethyl-6-[(1S,6S)-5-(3-methoxypyridine-2-carbonyl)-2,5-diazabicyclo[4.2.0]octan-2-yl]-7-oxo-2H,4H,7H-[1,2,3]triazolo[4,5-b]pyridin-4-yl]-N-[3-(propan-2-yl)bicyclo[1.1.1]pentan-1-yl]acetamide], in experiment [1], the IC50 is 5 to 50 nM. In addition, in experiment [2], the EC50 lay in the range of 500 to 2000 nM.

On to `CCc1c(N2CCN(C(=O)c3cccc4c3OCCN4C)[C@H]3CC[C@@H]32)c(=O)c2nn(C3=CCOCC3)nc2n1CC(=O)NC12CC(C3CC3)(C1)C2` [Compound I-205, N-{3-cyclopropylbicyclo[1.1.1]pentan-1-yl}-2-[2-(3,6-dihydro-2H-pyran-4-yl)-5-ethyl-6-[(1S,6S)-5-(4-methyl-3,4-dihydro-2H-1,4-benzoxazine-8-carbonyl)-2,5-diazabicyclo[4.2.0]octan-2-yl]-7-oxo-2H,4H,7H-[1,2,3]triazolo[4,5-b]pyridin-4-yl]acetamide], for which, in experiment [1], the IC50 was 5 to 50 nM. Besides, in experiment [2], the EC50 lay in the range of 500 to 2000 nM.

Regarding `CCc1c(N2CCN(C(=O)c3cnn(C)c3)[C@H]3CC[C@@H]32)c(=O)c2nn(C3=CCOCC3)nc2n1CC(=O)NC12CC(C(C)C)(C1)C2` [Compound I-206, 2-[2-(3,6-dihydro-2H-pyran-4-yl)-5-ethyl-6-[(1S,6S)-5-(1-methyl-1H-pyrazole-4-carbonyl)-2,5-diazabicyclo[4.2.0]octan-2-yl]-7-oxo-2H,4H,7H-[1,2,3]triazolo[4,5-b]pyridin-4-yl]-N-[3-(propan-2-yl)bicyclo[1.1.1]pentan-1-yl]acetamide], the IC50 in experiment [1] fell in the range of 5 to 50 nM. Further, the EC50 in experiment [2] lay within 500 to 2000 nM.

On to `CCc1c(N2CCN(C(=O)c3cccnc3OC(F)F)[C@H]3CC[C@@H]32)c(=O)c2nn(C3=CCOCC3)nc2n1CC(=O)NC12CC(C(C)C)(C1)C2` [Compound I-207, 2-{6-[(1S,6S)-5-[2-(difluoromethoxy)pyridine-3-carbonyl]-2,5-diazabicyclo[4.2.0]octan-2-yl]-2-(3,6-dihydro-2H-pyran-4-yl)-5-ethyl-7-oxo-2H,4H,7H-[1,2,3]triazolo[4,5-b]pyridin-4-yl}-N-[3-(propan-2-yl)bicyclo[1.1.1]pentan-1-yl]acetamide], for which the IC50 in experiment [1] is 5 to 50 nM. Also, the EC50 in experiment [2] fell in the range of 500 to 2000 nM.

Turning to `CCc1c(N2CCN(C(=O)c3ccncc3OC)[C@H]3CC[C@@H]32)c(=O)c2nn(C3=CCOCC3)nc2n1CC(=O)NC12CC(C(C)C)(C1)C2` [Compound I-208, 2-[2-(3,6-dihydro-2H-pyran-4-yl)-5-ethyl-6-[(1S,6S)-5-(3-methoxypyridine-4-carbonyl)-2,5-diazabicyclo[4.2.0]octan-2-yl]-7-oxo-2H,4H,7H-[1,2,3]triazolo[4,5-b]pyridin-4-yl]-N-[3-(propan-2-yl)bicyclo[1.1.1]pentan-1-yl]acetamide], the IC50 in experiment [1] lay in the range of 5 to 50 nM. Besides, the EC50 in experiment [2] lay in the range of 500 to 2000 nM.

On to `CCc1c(N2CCN(C(=O)c3cn(C)nc3OC)[C@H]3CC[C@@H]32)c(=O)c2nn(C3=CCOCC3)nc2n1CC(=O)NC12CC(C(C)C)(C1)C2` [Compound I-209, 2-[2-(3,6-dihydro-2H-pyran-4-yl)-5-ethyl-6-[(1S,6S)-5-(3-methoxy-1-methyl-1H-pyrazole-4-carbonyl)-2,5-diazabicyclo[4.2.0]octan-2-yl]-7-oxo-2H,4H,7H-[1,2,3]triazolo[4,5-b]pyridin-4-yl]-N-[3-(propan-2-yl)bicyclo[1.1.1]pentan-1-yl]acetamide], for which, in experiment [1], the IC50 was in the range of 5 to 50 nM. Moreover, the EC50 in experiment [2] lay in the range of 500 to 2000 nM.

Take `CCc1c(N2CCN(C(=O)c3cnn(C)c3OC)[C@H]3CC[C@@H]32)c(=O)c2nn(C3=CCOCC3)nc2n1CC(=O)NC12CC(C(C)C)(C1)C2` [Compound I-210, 2-[2-(3,6-dihydro-2H-pyran-4-yl)-5-ethyl-6-[(1S,6S)-5-(5-methoxy-1-methyl-1H-pyrazole-4-carbonyl)-2,5-diazabicyclo[4.2.0]octan-2-yl]-7-oxo-2H,4H,7H-[1,2,3]triazolo[4,5-b]pyridin-4-yl]-N-[3-(propan-2-yl)bicyclo[1.1.1]pentan-1-yl]acetamide]: in experiment [1], the IC50 is 5 to 50 nM. Besides, the EC50 in experiment [2] was in the range of 500 to 2000 nM.

As for `CCc1c(N2CCN(C(=O)c3cccnc3OC)[C@H]3CC[C@@H]32)c(=O)c2nn(C3=CCOCC3)nc2n1CC(=O)Nc1ccc(C(F)F)cc1F` [Compound I-211, N-[4-(difluoromethyl)-2-fluorophenyl]-2-[2-(3,6-dihydro-2H-pyran-4-yl)-5-ethyl-6-[(1S,6S)-5-(2-methoxypyridine-3-carbonyl)-2,5-diazabicyclo[4.2.0]octan-2-yl]-7-oxo-2H,4H,7H-[1,2,3]triazolo[4,5-b]pyridin-4-yl]acetamide], in experiment [1], the IC50 was no more than 5 nM. In addition, in experiment [2], the EC50 is no more than 500 nM.

For the molecule `CCc1c(N2CCN(C(=O)c3c(OC)ncc(Cl)c3O)[C@H]3CC[C@@H]32)c(=O)c2nn(C3=CCOCC3)nc2n1CC(=O)NC12CC(C3CC3)(C1)C2` [Compound I-213, 2-{6-[(1S,6S)-5-(5-chloro-4-hydroxy-2-methoxypyridine-3-carbonyl)-2,5-diazabicyclo[4.2.0]octan-2-yl]-2-(3,6-dihydro-2H-pyran-4-yl)-5-ethyl-7-oxo-2H,4H,7H-[1,2,3]triazolo[4,5-b]pyridin-4-yl}-N-{3-cyclopropylbicyclo[1.1.1]pentan-1-yl}acetamide], the IC50 in experiment [1] was in the range of 5 to 50 nM. The EC50 in experiment [2] was 2000 to 5000 nM.

With `CCc1c(N2CCN(C(=O)c3c(OC)ccc[n+]3[O-])CC2)c(=O)c2nn(C3=CCOCC3)nc2n1CC(=O)Nc1ccc(C(F)(F)F)cc1Cl` [Compound I-214, 2-{4-[4-({[2-chloro-4-(trifluoromethyl)phenyl]carbamoyl}methyl)-2-(3,6-dihydro-2H-pyran-4-yl)-5-ethyl-7-oxo-2H,4H,7H-[1,2,3]triazolo[4,5-b]pyridin-6-yl]piperazine-1-carbonyl}-3-methoxypyridin-1-ium-1-olate], the IC50 in experiment [1] lay in the range of 5 to 50 nM. Also, the EC50 in experiment [2] was greater than 5000 nM.

(Values after patent publication US20250129069A1, “TRIAZOLO WRN INHIBITORS” (Nimbus Wadjet, Inc., priority 2023, published 2025).)
